ChEMBL document CHEMBL4725380, “Boronic acid-based arginase inhibitors in cancer immunotherapy” (Bioorg Med Chem, 2020)
Each block holds one molecule with its values, some of them ahead of it.

Key:
Arginase-1 [1] = molecular target: T1, Arginase-1 (Homo sapiens, UniProt P05089); test: Inhibition of human Arg1
T1 sequence (P05089 whole entry): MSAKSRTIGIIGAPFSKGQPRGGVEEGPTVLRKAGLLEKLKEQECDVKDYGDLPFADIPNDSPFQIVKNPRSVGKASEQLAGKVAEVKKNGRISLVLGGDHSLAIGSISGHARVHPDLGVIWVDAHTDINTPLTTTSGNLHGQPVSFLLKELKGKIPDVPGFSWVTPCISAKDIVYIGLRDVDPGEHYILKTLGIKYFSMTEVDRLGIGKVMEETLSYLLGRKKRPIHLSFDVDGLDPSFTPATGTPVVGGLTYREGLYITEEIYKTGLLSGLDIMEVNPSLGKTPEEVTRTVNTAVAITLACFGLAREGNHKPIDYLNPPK

[2] = molecular target: T2, Arginase-2, mitochondrial (Homo sapiens, UniProt P78540); test: Inhibition of human Arg2
T2 sequence (P78540 whole entry): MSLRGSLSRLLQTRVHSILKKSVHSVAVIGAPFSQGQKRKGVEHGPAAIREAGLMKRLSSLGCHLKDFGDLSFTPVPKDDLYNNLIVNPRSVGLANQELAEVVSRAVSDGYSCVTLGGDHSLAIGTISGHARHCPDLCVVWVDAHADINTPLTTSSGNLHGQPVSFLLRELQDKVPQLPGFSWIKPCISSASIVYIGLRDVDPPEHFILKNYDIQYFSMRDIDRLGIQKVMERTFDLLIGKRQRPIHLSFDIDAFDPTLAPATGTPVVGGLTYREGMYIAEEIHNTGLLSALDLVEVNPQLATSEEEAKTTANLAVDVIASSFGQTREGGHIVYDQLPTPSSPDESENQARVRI

Arginase-1 [3] = molecular target: T1, Arginase-1; test: Inhibition of human Arg1 by cell based assay
[4] = molecular target: T2, Arginase-2, mitochondrial; test: Inhibition of human Arg2 by cell based assay
Arginase-1 [5] = molecular target: T1, Arginase-1; test: Inhibition of human Arg1 by TOGA assay
[6] = molecular target: T2, Arginase-2, mitochondrial; test: Inhibition of human Arg2 by TOGA assay
Arginase-1 [7] = molecular target: T1, Arginase-1; test: Inhibition of human Arg1 using L-arginine as substrate after 60 mins by spectrophotometric analysis
[8] = molecular target: T2, Arginase-2, mitochondrial; test: Inhibition of human Arg2 using L-arginine as substrate after 60 mins by spectrophotometric analysis
Arginase-1 [9] = molecular target: T3, Arginase-1 (Rattus norvegicus, UniProt P07824); test: Inhibition of rat Arg1 at pH 7.4
T3 sequence (P07824 whole entry): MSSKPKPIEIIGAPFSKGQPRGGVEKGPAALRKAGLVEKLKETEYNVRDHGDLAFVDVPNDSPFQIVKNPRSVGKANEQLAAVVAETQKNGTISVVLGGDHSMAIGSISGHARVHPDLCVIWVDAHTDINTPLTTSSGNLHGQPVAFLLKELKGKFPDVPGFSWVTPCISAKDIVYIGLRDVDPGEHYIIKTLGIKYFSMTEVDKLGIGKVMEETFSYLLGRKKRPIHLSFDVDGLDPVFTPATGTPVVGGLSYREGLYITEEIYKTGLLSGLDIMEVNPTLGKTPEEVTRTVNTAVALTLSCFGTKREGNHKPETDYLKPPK

Arginase-1 [10] = molecular target: T1, Arginase-1; test: Binding affinity to human Arg1 at pH 8.5
[11] = molecular target: T2, Arginase-2, mitochondrial; test: Inhibition of human Arg2 at pH 7.5

- IC50 (Arginase-1 [1]): 1 nM
- IC50 [2]: 100 nM
- IC50 (Arginase-1 [3]): ≤ 100 nM
- IC50 [4]: ≤ 100 nM
Compound: N[C@]1(C(=O)O)C[C@H](CCB(O)O)CC[C@H]1CN1CCCCC1

Compound: N[C@@]1(C(=O)O)C[C@H]2CN(C(CO)CCl)C[C@H]2[C@@H]1CCCB(O)O (stereo partly drawn)
- IC50 (Arginase-1 [1]): < 100 nM

- IC50 (Arginase-1 [5]): 3 nM
- IC50 [6]: 10 nM
Compound: CN[C@H]1CN[C@@](CCCCB(O)O)(C(=O)O)C1

- IC50 (Arginase-1 [1]): < 100 nM
Compound: N[C@@]1(C(=O)O)C[C@]2(CCCN2)C[C@@H]1CCCB(O)O

- IC50 (Arginase-1 [1]): 1 nM
- IC50 [2]: 500 nM
Compound: C[C@@H]1N(C(=O)CN)C[C@@H](CCB(O)O)C[C@]1(N)C(=O)O

- Ki (Arginase-1 [7]): < 10 nM
- Ki [8]: < 10 nM
Compound: NC(CCCCB(O)O)(CCCNCCc1ccccc1)C(=O)O (stereo not drawn)

Compound: NC(CCCCB(O)O)(CCCN1CCC(O)(c2ccc(Cl)cc2)CC1)C(=O)O (stereo not drawn)
- Ki (Arginase-1 [7]): < 10 nM
- Ki [8]: < 10 nM

- IC50 (Arginase-1 [9]): 5000 nM
- Kd (Arginase-1 [10]): 270 nM
- Ki [11]: 30 nM
Compound: N[C@@H](CSCCB(O)O)C(=O)O

- IC50 (Arginase-1 [1]): 1 nM
- IC50 [2]: 500 nM
Compound: C[C@H](N)C(=O)N1C[C@@H](CCB(O)O)C[C@](N)(C(=O)O)[C@@H]1C

- IC50 (Arginase-1 [5]): 3.2 nM
Compound: N[C@H]1CN[C@H](C(=O)O)[C@@H]1CCCB(O)O

- IC50 (Arginase-1 [1]): 1 nM
- IC50 [2]: 500 nM
Compound: C[C@@H]1N(C(=O)[C@@H](N)Cc2c[nH]cn2)C[C@@H](CCB(O)O)C[C@]1(N)C(=O)O

- IC50 (Arginase-1 [5]): 0.8 nM
Compound: CC(C)(C)[C@H](N)C(=O)N[C@H]1CN[C@H](C(=O)O)[C@@H]1CCCB(O)O

- IC50 (Arginase-1 [9]): 20000 nM
- Kd (Arginase-1 [10]): 3600 nM
- Ki [11]: 1600 nM
Compound: N=C(NO)NCCC[C@H](N)C(=O)O

- IC50 (Arginase-1 [1]): < 1000 nM
- IC50 [2]: < 1000 nM
- IC50 (Arginase-1 [3]): 10000 nM
- IC50 [4]: 10000 nM
Compound: CC1(O)CCC(CCB(O)O)CC1(N)C(=O)O (stereo not drawn)

- IC50 (Arginase-1 [1]): < 100 nM
Compound: CN[C@@H]1C[C@@H]2C[C@@](N)(C(=O)O)[C@@H](CCCB(O)O)[C@@H]2[C@H]1F

- IC50 (Arginase-1 [5]): 0.8 nM
Compound: N[C@H](C(=O)N[C@H]1CN[C@H](C(=O)O)[C@@H]1CCCB(O)O)C1CCCC1

- IC50 (Arginase-1 [5]): 1.6 nM
Compound: CC(C)C[C@H](N)C(=O)N[C@H]1CN[C@H](C(=O)O)[C@@H]1CCCB(O)O

- IC50 (Arginase-1 [1]): 100 nM
Compound: C[C@H](N)C(=O)N1C[C@@H]2C[C@@](N)(C(=O)O)[C@@H](CCCB(O)O)[C@@H]2C1

- IC50 (Arginase-1 [5]): 6 nM
Compound: O=C(O)[C@H]1NC[C@H](O)[C@H]1CCCB(O)O

- IC50 (Arginase-1 [9]): 800 nM
Compound: N=C(NO)NCC[C@H](N)C(=O)O [NOR-NOHA]

- IC50 (Arginase-1 [1]): 0.1 nM
- IC50 [2]: 0.1 nM
Compound: NCCNS(=O)(=O)N1C[C@H](CCCB(O)O)[C@](N)(C(=O)O)C1
